Type in all cases: cell-based, human
Assay [1] concerns A549 cells with Kras G12S mutation. As to the kind of experiment: Cell proliferation inhibition experiment, 3D spheroid, CellTiter-Glo (Test Example 1). As to conditions: 5 days. The protocol: (§1) NCI-H358 was a human NSCLC cell line with Kras G12C mutation, which was cultured in a RPMI-1640 medium with 10% fetal bovine serum (FBS). A549 was a human lung adenocarcinoma cell line with Kras G12S mutation, which was cultured in an F-12K medium with 10% FBS. Cells in logarithmic growth phase were detached with trypsin and EDTA, collected and counted, and H358 was regulated to 1.8E4 cells/ml by using an RPMI-1640 medium with 2% FBS, while A549 was regulated to 8.9E3 cells/ml with an F-12K medium containing 2% FBS. 800 (45 μl) H358 cells and 400 (45 μl) A549 cells were seeded to 384-well spheroid plates, respectively, and cultured overnight to establish 3D cell models. 1000× stock solutions of compounds at a concentration gradient of 3.16 were prepared by using DMSO, and diluted 100 times by the medium with 2% FBS into 10× stock solutions of compounds. On the day after cell seeding, 5 μl of 10× stock solution of a compound was added to each well of cell culture plate, with a final concentration being 1× and a DMSO content of 0.1%. DMSO was used as the control, and the medium with 2% FBS was used as blank control group. After 5 days of cell culture with the compound, 25 μl of CellTiter-Glo working solution was added to each well, and mixed uniformly at 400 rpm and incubation for 30 minutes. After standing at room temperature for 30 minutes, 40 μl of mixed solution was transferred to a 384-well plate with white clear bottom. A value of luminescence was then read, and a cell proliferation inhibition rate (IR) (%)=(RLU control-RLU compound)/(RLU control−RLU blank)×100%. The value of IC50 was calculated by fitting a gradiently diluted concentration of the compound and the corresponding cell proliferation inhibition rate using a Prism 6 four-parameter method.

In assay [2] the test system is NCI-H358 cells with Kras G12C mutation. Described as above. As to conditions: 5 days. How it is done: as §1
Assay [3] deals with phosphorylated ERK in MIA PaCa2 cells with Kras G12C mutation. The assay can be described thus: p-ERK HTRF assay for cells (Test Example 2). The conditions noted are these: MIA PaCa2 cells, 2 hours with compound, read-out: p-ERK IC50. How it is done:
MIA PaCa2 was a human pancreatic carcinoma cell line with Kras G12C mutation, which was cultured in a DMEM with 10% FBS and 2.5% Horse serum. Cells in logarithmic growth phase were detached with trypsin and EDTA, collected and counted, and 2.5E4 cells were seeded to a 96-well cell culture plate and cultured overnight. 1000× stock solutions of compounds at a concentration gradient of 3.16 were prepared by using DMSO, and diluted 200 times by the medium into 5× stock solutions of compounds. On the day after cell seeding, 5× stock solution of a compound was added to each well of cell culture plate, with a final concentration being 1× and a DMSO content of 0.1%. DMSO was used as the control. The residual culture was removed after culturing for 2 hours with the compound. To each well, 50 ul of cell lysis buffer was added and mixed uniformly and incubation for 30 minutes. Subsequently, 16 ul of mixed solution was transferred to a 96-well plate with white unclear bottom, and 16 ul of cell lysis buffer was added to the blank control group. After the completion of transfer, 4 ul of p-ERK HTRF antibody mixture was added to each well, and a value of fluorescence intensity was read after incubation for 4 hours. The inhibition rate (IR) of the compound was calculated by the following equation: IR (%)=(RLU control-RLU compound)/(RLU control−RLU blank)×100%. The value of IC50 was calculated by fitting a gradiently diluted concentration of the compound and the corresponding cell proliferation inhibition rate using a Prism 8 four-parameter method.
(Time-resolved FRET reads energy transfer from a long-lived donor to a nearby acceptor.)

Assay [4] concerns MIA PaCa-2 cells with Kras G12C mutation. The assay can be described thus: Cell proliferation inhibition experiment, 3D spheroid, CellTiter-Glo (Test Example 3). As to conditions: 5 days, read-out: MIA-PaCa2 IC50. How it is done:
MIA PaCa-2 was a human pancreatic carcinoma cell line with Kras G12C mutation, which was cultured in a DMEM with 10% FBS and 2.5% Horse serum. A549 was a human lung adenocarcinoma cell line with Kras G12S mutation, which was cultured in an F-12K medium with 10% FBS. Cells in logarithmic growth phase were detached with trypsin and EDTA, collected and counted, and 200 MIA PaCa-2 cells and 400 A549 cells were seeded to 384-well spheroid plates, respectively, and cultured overnight to establish 3D cell models. 1000× stock solutions of compounds at a concentration gradient of 3.16 were prepared by using DMSO, and diluted 100 times by the medium into 10× stock solutions of compounds. On the day after cell seeding, 10× stock solution of a compound was added to each well of cell culture plate, with a final concentration being 1× and a DMSO content of 0.1%. DMSO was used as the control, and the medium was used as the blank. After 5 days of cell culture with the compound, 30 μl of CellTiter-Glo working solution was added to each well, and mixed uniformly and incubation for 30 minutes. After standing at room temperature for 30 minutes, 40 μl of mixed solution was transferred to a 384-well plate with white unclear bottom. A value of luminescence intensity was then read, and a cell proliferation inhibition rate (IR) (%)=(RLU control−RLU compound)/(RLU control−RLU blank)×100%. The value of IC50 was calculated by fitting a gradiently diluted concentration of the compound and the corresponding cell proliferation inhibition rate using an XLFit four-parameter method.
For orientation: ATP-based viability assays read luminescence as a measure of living cells.

[5] abbreviates: Homo sapiens, MIA PaCa-2, 120 h.

Where two headings read alike, the source gives them in different places.

What is called IC50 is the concentration needed to halve the response being measured. As for `[2H]C([2H])([2H])N1C(=O)[C@H]2CN(C(=O)C=C)CCN2c2c1c(=O)n(-c1c(C(C)C)ncnc1C(C)C)c1c(F)c(-c3c(O)cccc3F)c(Cl)cc21` (atropisomer, axis not shown; (aR)) [Compound Z39-1, (4aR) -3-acryloyl-11-chloro-8-(4,6-diisopropylpyrimidin-5-yl)-9-fluoro-10-(2-fluoro-6-hydroxyphenyl)-6-(deuteromethyl-d3)-2,3,4,4a,6,8-hexahydro-1H-pyrazino[1′,2′,5]pyrazino[2,3-c]quinolin-5,7-dione], the IC50 in assay [1] is over 30000 nM; in assay [2], 0.6 nM; in assay [3] (Homo sapiens, MIA PaCa-2, 2 h), 11 nM; in assay [4] (setting [5]) it was 1 nM.
On to `C=CC(=O)N1CCN2c3c(c(=O)n(-c4c(C)ccnc4C(C)C)c4nc(-c5c(O)cccc5F)c(F)cc34)OC[C@H]2C1` (single isomer, unassigned) [Compound Z1-2], for which the IC50 amounted to 16500 nM in assay [1] (Homo sapiens, A549, 120 h) and 198 nM in assay [2].
Consider `C=CC(=O)N1CCN2c3c(c(=O)n(-c4c(C)ccnc4C(C)C)c4nc(-c5c(O)cccc5F)c(F)cc34)N(CC)C(=O)[C@H]2C1` (single isomer, unassigned) [Compound Z30-1], for which the IC50 is over 30000 nM in assay [1] and 804 nM in assay [2].
As to `C=CC(=O)N1CCN2c3c(c(=O)n(-c4c(C)ccnc4C(C)C)c4nc(-c5c(O)cccc5F)c(F)cc34)N(CC)C(=O)[C@H]2C1` (single isomer, unassigned) [Compound Z30-2], the IC50 in assay [1] is over 30000 nM; in assay [2], 47 nM; in assay [3], 488 nM; in assay [4] it was 130 nM.
`C=CC(=O)N1C[C@@H]2C(=O)Nc3c(c4cc(F)c(-c5c(O)cccc5F)nc4n(-c4c(C)ccnc4C(C)C)c3=O)N2C[C@H]1C` (single isomer, unassigned) [Compound Z35-1]: the values for the IC50 in assay [1], in assay [2] and in assay [3] were over 30000 nM, 37 nM and 249 nM, respectively.
Turning to `C=CC(=O)N1C[C@@H]2C(=O)Nc3c(c4cc(F)c(-c5c(O)cccc5F)nc4n(-c4c(C)ccnc4C(C)C)c3=O)N2C[C@H]1C` (single isomer, unassigned) [Compound Z35-2], the IC50 was over 30000 nM in assay [1], 6 nM in assay [2] and 49 nM in assay [3].
As for `C=CC(=O)N1CC2C(=O)N(C)c3c(c4cc(F)c(-c5c(O)cccc5F)nc4n(-c4c(C(F)(F)F)ccnc4C(C)C)c3=O)N2C[C@H]1C` (single isomer, unassigned) [Compound Z49-2], the IC50 in assay [1] was over 30000 nM; in assay [2], 44 nM.
As to `C=CC(=O)N1CCN2c3c(cnc4c3CCN(c3c(C)ccc5[nH]ncc35)C4)OC[C@H]2C1` [Compound Z2, (R)-1-(3-(5-methyl-1H-indazol-4-yl)-1,2,3,4,8a,9,11,12-octahydropyrazino[1′,2′:4,5][1,4]oxazino[2,3-c][1,7]naphthyridin-10(8H)-yl)propyl-2-en-1-one], the results for the 50% inhibitory concentration (IC50) in assay [1] and in assay [2] were over 10000 nM and 773 nM, respectively.
Regarding `C=CC(=O)N1CCN2c3c(c(=O)n(-c4c(C)ccnc4C(C)C)c4nc(-c5c(O)cccc5F)c(F)cc34)N(C)C(=O)[C@H]2C1` [Compound Z9, (4aR)-3-acryloyl-11-fluoro-10-(2-fluoro-6-hydroxyphenyl)-8-(2-isopropyl-4-methylpyridin-3-yl)-6-methyl-2,3,4,4a,6,8-hexahydro-1H-pyrazino[1′,2′:4,5]pyrazino[2,3-c][1,8,8]naphthyridin-5,7-dione], the IC50 in assay [2] (Homo sapiens, NCI-H358, 120 h) is 32 nM; in assay [3] (Homo sapiens, MIA PaCa-2, 2 h), 187 nM; in assay [4] (setting [5]) it was 74 nM.
Turning to `C=CC(=O)N1C[C@@H]2C(=O)N(C)c3c(c4cc(F)c(-c5c(O)cccc5F)nc4n(-c4nccnc4C(C)C)c3=O)N2C[C@H]1C` [Compound Z22, (2R,4aR)-3-acryloyl-11-fluoro-10-(2-fluoro-6-hydroxyphenyl)-8-(3-isopropylpyrazin-2-yl)-2,6-dimethyl-2,3,4,4a,6,8-hexahydro-1H-pyrazino[1′,2′:4,5]pyrazino[2,3-c][1,8]naphthyridin-5,7-dione], the IC50 is over 30000 nM in assay [1] (Homo sapiens, A549, 120 h); 67 nM in assay [2] (Homo sapiens, NCI-H358, 120 h); 180 nM in assay [4] (setting [5]).
On the same counts, the results for `C=CC(=O)N1CCN2c3c(c(=O)n(-c4c(C)ccnc4C(C)C)c4nc(-c5c(O)cccc5F)c(F)cc34)OC[C@@H]2C1` [Compound Z28, (4aS)-3-acryloyl-11-fluoro-10-(2-fluoro-6-hydroxyphenyl)-8-(2-isopropyl-4-methylpyridin-3-yl)-1,2,3,4,4a,5-hexahydropyrazino[1′,2′:4,5][1,4]oxazino[2,3-c][1,8]naphthyridin-7(8H)-one] are 16900 nM, 90 nM and 234 nM.
Turning to `C=CC(=O)N1CCN2c3c(c(=O)n(-c4c(C)ccnc4C(C)C)c4nc(-c5c(C)ccc6[nH]ncc56)c(F)cc34)OC[C@H]2C1` [Compound Z29, (4aR)-3-acryloyl-11-fluoro-8-(2-isopropyl-4-methylpyridin-3-yl)-10-(5-methyl-1H-indazol-4-yl)-1,2,3,4,4a,5-hexahydropyrazino[1′,2′:4,5][1,4]oxazino[2,3-c][1,8]naphthyridin-7(8H)-one], the IC50 turned out to be 21800 nM in assay [1] (Homo sapiens, A549, 120 h) and 166 nM in assay [2] (Homo sapiens, NCI-H358, 120 h).
On to `C=CC(=O)N1CCN2c3c(c(=O)n(-c4c(C5CC5)ncnc4C4CC4)c4nc(-c5c(F)cccc5OC)c(F)cc34)N(C)C(=O)[C@H]2C1` [Compound Z32, (4aR)-3-acryloyl-11-fluoro-10-(2-fluoro-6-methoxyphenyl)-8-(4,6-bicyclopropylpyrimidin-5-yl)-6-methyl-2,3,4,4a,6,8-hexahydro-1H-pyrazino[1′,2′:4,5]pyrazino[2,3-c][1,8]naphthyridin-5,7-dione], for which the half-inhibitory concentration (IC50) in assay [1] (Homo sapiens, A549, 120 h) is over 30000 nM; in assay [2] (Homo sapiens, NCI-H358, 120 h) it was 64 nM; in assay [4] (setting [5]) it was 170 nM.
The matching figures for `C=CC(=O)N1C[C@@H]2C(=O)N(C)c3c(c4cc(F)c(-c5c(O)cccc5F)nc4n(-c4c(C(C)C)nn(C)c4C)c3=O)N2C[C@H]1C` [Compound Z47, (2R,4aR)-3-acryloyl-11-fluoro-10-(2-fluoro-6-hydroxyphenyl)-8-(3-isopropyl-1,5-dimethyl-1H-pyrazol-4-yl)-2,6-dimethyl-2,3,4,4a,6,8-hexahydro-1H-pyrazino[1′,2′:4,5]pyrazino[2,3-c][1,8]naphthyridin-5,7-dione]: over 30000 nM, 31 nM and 83 nM.
Consider `C=CC(=O)N1CCN2c3c(c(=O)n(-c4c(C5CC5)ncnc4C4CC4)c4nc(-c5c(O)cccc5F)c(Cl)cc34)N(C)C(=O)[C@H]2C1` [Compound Z72], for which the IC50 in assay [3] (Homo sapiens, MIA PaCa-2, 2 h) was 106 nM.

The record behind these values is patent publication US12054497B2, “Substituted heterocyclic fused cyclic compound, preparation method therefor and pharmaceutical use thereof” (GENFLEET THERAPEUTICS (SHANGHAI) INC., priority 2019, dated 2024).
